Measured values taken from ChEMBL document CHEMBL3102771, “Regioselective synthesis of 3-benzyl substituted pyrimidino chromen-2-ones and evaluation of anti-microbial and anti-biofilm activities” (2014).
≈ marks a conversion by molar mass, not a printed value. Calls of active or inactive are those of the source. The calls are words filed in the database; no cut-off is given here.

Experiments:
Assay type in all cases: functional
Pseudomonas aeruginosa [1] = assay: Antimicrobial activity against Pseudomonas aeruginosa MTCC 2453 assessed as growth inhibition after 24 hrs by well diffusion method; conditions: MTCC 2453, 24 h
Bacillus subtilis = assay: Antimicrobial activity against Bacillus subtilis MTCC 121 assessed as growth inhibition after 24 hrs by well diffusion method; conditions: MTCC 121, 24 h
Staphylococcus aureus [2] = assay: Antimicrobial activity against Staphylococcus aureus MLS-16 MTCC 2940 assessed as growth inhibition after 24 hrs by well diffusion method; conditions: MLS-16 MTCC 2940, 24 h
Staphylococcus aureus [3] = assay: Antimicrobial activity against Staphylococcus aureus MTCC 96 assessed as growth inhibition after 24 hrs by well diffusion method; conditions: MTCC 96, 24 h
Micrococcus luteus = assay: Antimicrobial activity against Micrococcus luteus MTCC 2470 assessed as growth inhibition after 24 hrs by well diffusion method; conditions: MTCC 2470, 24 h
Pseudomonas aeruginosa [4] = assay: Antibiofilm activity against Pseudomonas aeruginosa MTCC 2453 after 24 hrs by crystal violet staining technique
Staphylococcus aureus [5] = assay: Antibiofilm activity against Staphylococcus aureus MLS-16 MTCC 2940 after 24 hrs by crystal violet staining technique
Staphylococcus aureus [6] = assay: Antibiofilm activity against Staphylococcus aureus MTCC 96 after 24 hrs by crystal violet staining technique

| Compound | MIC (Pseudomonas aeruginosa [1]) | MIC (Bacillus subtilis) | MIC (Staphylococcus aureus [2]) | MIC (Staphylococcus aureus [3]) | MIC (Micrococcus luteus) | MBEC (Pseudomonas aeruginosa [4]) | MBEC (Staphylococcus aureus [5]) | MBEC (Staphylococcus aureus [6]) |
| --- | --- | --- | --- | --- | --- | --- | --- | --- |
| Cn1c(N)c(C(c2ccc(C#N)cc2)c2c(O)c3cc(F)ccc3oc2=O)c(=O)n(C)c1=O (stereo unspecified) | > 150 µg/mL | 75 µg/mL (≈ 167 µM) | 75 µg/mL (≈ 167 µM) | 75 µg/mL (≈ 167 µM) | > 150 µg/mL | – | – | – |
| COc1ccc(C(c2c(O)c3cc(C)ccc3oc2=O)c2c(N)n(C)c(=O)n(C)c2=O)cc1 (stereo unspecified) | > 150 µg/mL | 75 µg/mL (≈ 167 µM) | 75 µg/mL (≈ 167 µM) | > 150 µg/mL | 75 µg/mL (≈ 167 µM) | – | – | – |
| CCCC(c1c(O)c2cc(C)ccc2oc1=O)c1c(N)n(C)c(=O)n(C)c1=O (stereo unspecified) | > 150 µg/mL | 18.8 µg/mL (≈ 48.6 µM) | 75 µg/mL (≈ 195 µM) | 75 µg/mL (≈ 195 µM) | 75 µg/mL (≈ 195 µM) | – | – | – |
| COc1ccc(-c2nn(-c3ccccc3)cc2C(c2c(O)c3cc(C)ccc3oc2=O)c2c(N)n(C)c(=O)n(C)c2=O)cc1 (stereo unspecified) | > 150 µg/mL | 2.34 µg/mL (≈ 3.96 µM) | > 150 µg/mL | 4.68 µg/mL (≈ 7.91 µM) | 2.34 µg/mL (≈ 3.96 µM) | inactive | inactive | 10 µg/mL |
| Cn1c(N)c(C(c2ccc(C#N)cc2)c2c(O)c3ccc4ccccc4c3oc2=O)c(=O)n(C)c1=O (stereo unspecified) | > 150 µg/mL | 37.5 µg/mL (≈ 78 µM) | 37.5 µg/mL (≈ 78 µM) | > 150 µg/mL | 150 µg/mL (≈ 312 µM) | – | – | – |
| Cc1ccc2oc(=O)c(C(c3cn(-c4ccccc4)nc3-c3ccccc3)c3c(N)n(C)c(=O)n(C)c3=O)c(O)c2c1 (stereo unspecified) | > 150 µg/mL | 2.34 µg/mL (≈ 4.17 µM) | > 150 µg/mL | 4.68 µg/mL (≈ 8.33 µM) | 2.34 µg/mL (≈ 4.17 µM) | inactive | inactive | 10 µg/mL |
| Cn1c(N)c(C(c2cn(-c3ccccc3)nc2-c2ccccc2)c2c(O)c3cc(F)ccc3oc2=O)c(=O)n(C)c1=O (stereo unspecified) | > 150 µg/mL | 4.68 µg/mL (≈ 8.27 µM) | 1.17 µg/mL (≈ 2.07 µM) | 2.34 µg/mL (≈ 4.14 µM) | 2.34 µg/mL (≈ 4.14 µM) | inactive | 4 µg/mL | 10 µg/mL |
| COc1cc(C(c2c(O)c3cc(F)ccc3oc2=O)c2c(N)n(C)c(=O)n(C)c2=O)cc(OC)c1O (stereo unspecified) | > 150 µg/mL | > 150 µg/mL | 37.5 µg/mL (≈ 75.1 µM) | > 150 µg/mL | 18.8 µg/mL (≈ 37.5 µM) | – | – | – |
| COc1ccc(C(c2c(O)c3ccc4ccccc4c3oc2=O)c2c(N)n(C)c(=O)n(C)c2=O)cc1OC (stereo unspecified) | > 150 µg/mL | 18.8 µg/mL (≈ 36.4 µM) | 9.37 µg/mL (≈ 18.2 µM) | > 150 µg/mL | > 150 µg/mL | – | – | – |
| COc1cc(C(c2c(O)c3cc(F)ccc3oc2=O)c2c(N)n(C)c(=O)n(C)c2=O)ccc1O (stereo unspecified) | > 150 µg/mL | 9.37 µg/mL (≈ 20 µM) | 37.5 µg/mL (≈ 79.9 µM) | 75 µg/mL (≈ 160 µM) | 9.37 µg/mL (≈ 20 µM) | inactive | 40 µg/mL | inactive |
| CCOc1cc(C(c2c(O)c3cc(C)ccc3oc2=O)c2c(N)n(C)c(=O)n(C)c2=O)ccc1O (stereo unspecified) | 9.37 µg/mL (≈ 19.5 µM) | 9.37 µg/mL (≈ 19.5 µM) | 9.37 µg/mL (≈ 19.5 µM) | 75 µg/mL (≈ 156 µM) | 9.37 µg/mL (≈ 19.5 µM) | 20 µg/mL | 10 µg/mL | inactive |
| Cc1ccc(-c2nn(-c3ccccc3)cc2C(c2c(O)c3cc(F)ccc3oc2=O)c2c(N)n(C)c(=O)n(C)c2=O)cc1 (stereo unspecified) | > 150 µg/mL | 1.17 µg/mL (≈ 2.02 µM) | > 150 µg/mL | 2.34 µg/mL (≈ 4.04 µM) | 0.58 µg/mL (≈ 1 µM) | inactive | inactive | 4 µg/mL |
| Cn1c(N)c(C(c2cn(-c3ccccc3)nc2-c2ccc([N+](=O)[O-])cc2)c2c(O)c3cc(F)ccc3oc2=O)c(=O)n(C)c1=O (stereo unspecified) | > 150 µg/mL | 2.34 µg/mL (≈ 3.83 µM) | > 150 µg/mL | 4.68 µg/mL (≈ 7.67 µM) | 2.34 µg/mL (≈ 3.83 µM) | inactive | inactive | 10 µg/mL |
| COc1ccc(-c2nn(-c3ccccc3)cc2C(c2c(O)c3cc(F)ccc3oc2=O)c2c(N)n(C)c(=O)n(C)c2=O)cc1 (stereo unspecified) | > 150 µg/mL | 2.34 µg/mL (≈ 3.93 µM) | > 150 µg/mL | 4.68 µg/mL (≈ 7.86 µM) | 2.34 µg/mL (≈ 3.93 µM) | inactive | inactive | 10 µg/mL |
| Cn1c(N)c(C(c2cn(-c3ccccc3)nc2-c2ccc(Cl)cc2)c2c(O)c3cc(F)ccc3oc2=O)c(=O)n(C)c1=O (stereo unspecified) | > 150 µg/mL | 1.17 µg/mL (≈ 1.95 µM) | > 150 µg/mL | 1.17 µg/mL (≈ 1.95 µM) | 0.58 µg/mL (≈ 0.967 µM) | inactive | inactive | 4 µg/mL |
| Cc1ccc2oc(=O)c(C(c3ccc(C(F)(F)F)cc3)c3c(N)n(C)c(=O)n(C)c3=O)c(O)c2c1 (stereo unspecified) | 9.37 µg/mL (≈ 19.2 µM) | 9.37 µg/mL (≈ 19.2 µM) | 18.8 µg/mL (≈ 38.5 µM) | > 150 µg/mL | 18.8 µg/mL (≈ 38.5 µM) | 20 µg/mL | 20 µg/mL | inactive |
| Cc1cc(O)c(C(c2c(N)n(C)c(=O)n(C)c2=O)C2CCCCC2)c(=O)o1 (stereo unspecified) | > 150 µg/mL | 150 µg/mL (≈ 400 µM) | > 150 µg/mL | > 150 µg/mL | > 150 µg/mL | – | – | – |
| Cc1ccc2oc(=O)c(C(c3ccc(F)cc3)c3c(N)n(C)c(=O)n(C)c3=O)c(O)c2c1 (stereo unspecified) | > 150 µg/mL | 37.5 µg/mL (≈ 85.7 µM) | 150 µg/mL (≈ 343 µM) | > 150 µg/mL | > 150 µg/mL | – | – | – |
| Cn1c(N)c(C(c2ccc(C(F)(F)F)cc2)c2c(O)c3ccc4ccccc4c3oc2=O)c(=O)n(C)c1=O (stereo unspecified) | > 150 µg/mL | 9.37 µg/mL (≈ 17.9 µM) | 2.34 µg/mL (≈ 4.47 µM) | 9.37 µg/mL (≈ 17.9 µM) | 18.8 µg/mL (≈ 35.8 µM) | inactive | 10 µg/mL | 10 µg/mL |
| Cc1ccc2oc(=O)c(C(c3ccc(C#N)cc3)c3c(N)n(C)c(=O)n(C)c3=O)c(O)c2c1 (stereo unspecified) | > 150 µg/mL | > 150 µg/mL | 150 µg/mL (≈ 337 µM) | > 150 µg/mL | > 150 µg/mL | – | – | – |
| O=C(O)c1cn(C2CC2)c2cc(N3CCNCC3)c(F)cc2c1=O [CIPROFLOXACIN] | 0.58 µg/mL (≈ 1.75 µM) | 0.58 µg/mL (≈ 1.75 µM) | 0.58 µg/mL (≈ 1.75 µM) | 0.58 µg/mL (≈ 1.75 µM) | 0.58 µg/mL (≈ 1.75 µM) | 4 µg/mL | 4 µg/mL | 4 µg/mL |
| Cc1ccc2oc(=O)c(C(c3ccc(C(C)C)cc3)c3c(N)n(C)c(=O)n(C)c3=O)c(O)c2c1 (stereo unspecified) | > 150 µg/mL | 9.37 µg/mL (≈ 20.3 µM) | 150 µg/mL (≈ 325 µM) | > 150 µg/mL | 75 µg/mL (≈ 163 µM) | – | – | – |
| Cc1cc(O)c(C(c2ccc(C(F)(F)F)cc2)c2c(N)n(C)c(=O)n(C)c2=O)c(=O)o1 (stereo unspecified) | > 150 µg/mL | 150 µg/mL (≈ 343 µM) | > 150 µg/mL | > 150 µg/mL | > 150 µg/mL | – | – | – |
